From the NIST ThermoML archive (doi:10.1021/je400272k)

Assay: wn = mass fraction of the nth substance listed
Conditions: Liquid, Vibrating tube method

CCCC[N+](CCCC)(CCCC)CCCC.[Br-] [tetrabutylammonium bromide] + O
mass density [kg/m3]
Conditions	100 kPa	1000 kPa	2000 kPa	3000 kPa	4000 kPa	5000 kPa
293.15 K, w1 = 0.1	–	–	–	1007.5	1007.9	1008.3
293.15 K, w1 = 0.14	–	–	–	1011.2	1011.6	1012.1
293.15 K, w1 = 0.2	–	–	1017	1017.5	1017.8	1018.2
293.15 K, w1 = 0.3	–	–	1027.1	1027.5	1027.9	1028.2
293.15 K, w1 = 0.4	–	–	1036	1036.4	1036.8	1037.1
298.15 K, w1 = 0.1	1004.9	1005.3	1005.7	1006.1	1006.5	1006.9
298.15 K, w1 = 0.14	1008.4	1008.7	1009.1	1009.5	1009.9	1010.3
298.15 K, w1 = 0.2	1014.2	1014.5	1014.9	1015.3	1015.7	1016.1
298.15 K, w1 = 0.3	1023.7	1024	1024.4	1024.8	1025.1	1025.5
298.15 K, w1 = 0.4	1031.9	1032.3	1032.7	1033	1033.3	1033.7
303.15 K, w1 = 0.1	1003.2	1003.7	1004.1	1004.5	1005	1005.4
303.15 K, w1 = 0.14	1006.3	1006.6	1007	1007.4	1007.7	1008.1
303.15 K, w1 = 0.2	1011.9	1012.4	1012.8	1013.2	1013.6	1014
303.15 K, w1 = 0.3	1020.7	1021.2	1021.6	1022	1022.4	1022.7
303.15 K, w1 = 0.4	1028.6	1029.2	1029.5	1029.9	1030.3	1030.7
